Results as given in patent publication US8703179B2, “Mucosal formulation” (Kimberly-Clark Worldwide, Inc., priority 2006, dated 2014).
In brackets after ≈: the same amount, converted by molar mass. Where two headings read alike, the source gives them in different places.

Legend:
Assay type in all cases: cell-based
[1] = tested on: Candida albicans (C. albicans); assay: Time-dependent inhibition (organism count)
Text: (§1) Hexadecyl phosphocholine (“BRB-1”) was studied for inhibition of Candida albicans (C. albicans), Staphylococcus aureus (S. aureus), and lactobacilli. The results are shown below in Tables 3-4. Tetradecyl phosphocholine (“BRB-3”) was also studied for inhibition of C. albicans aureus, and lactobaccili.

[2] = tested on: L. acidophilus (lactobacilli); assay: Time-dependent inhibition (organism count); settings: for Organism Count / Percent Reduction: L. acidophilus
Text: as §1

[3] = tested on: Staphylococcus aureus (S. aureus); assay: Time-dependent inhibition (organism count)
Text: as §1

Candida albicans = assay: Growth inhibition (minimum inhibitory concentration, gross turbidity); settings: read-out: Minimum Inhibitory Concentration C. albicans
Procedure: (§2) The ability of the phosphocholine derivatives of Examples 1-2 to inhibit growth of Candida albicans, Staphylococcus aureus, Lactobacillus acidophilus, and Gardnerella vaginale was tested. Each phosphocholine derivative (at concentrations ranging from 0 to 500 micrograms per milliliter) was dissolved into a broth media and 6 wt. % ethanol. Thereafter, 0.1 milliliter of each solution was inoculated in 1.0 milliliter of a growth media containing the microorganism of interest. The growth media was TSB media for Candida albicans and Staphylococcus aureus, MRS broth for Lactobacillus acidophilus, and NYC-3 broth enriched proteose peptone for Gardnerella vaginale. The concentration of the microorganism in the growth media was 10^4 colony forming units (“CFU”) per milliliter.
(§3) Thereafter, the gross turbidity of the media was monitored at 24, 48, and 72 hours time intervals. Gross turbidity is an indicative of growth inhibition and is determined using visual determination or a spectrophotometer. The concentration of the phosphocholine derivative at which no turbidity is detected is designated as the “minimum inhibitory concentration.” Phosphocholine derivatives having lower minimum inhibitory concentrations are generally considered to have better antimicrobial efficacy.

Gardnerella vaginale = assay: as above; settings: read-out: Minimum Inhibitory Concentration G. vaginale
Procedure: as §2, §3

[4] = tested on: Lactobacillus acidophilus; assay: as above; settings: read-out: Minimum Inhibitory Concentration L. acidophilus
Procedure: as §2, §3

Staphylococcus aureus = assay: as above; settings: read-out: Minimum Inhibitory Concentration S. aureus
Procedure: as §2, §3

[5] = TSB media, 10^4 CFU/ml, turbidity at 24, 48, 72 hours
[6] = NYC-3 broth, 10^4 CFU/ml, turbidity at 24, 48, 72 hours
[7] = MRS broth, 10^4 CFU/ml, turbidity at 24, 48, 72 hours

**Q.** What does the source list for tetradecyl phosphocholine [BRB-3]?
**A.** % Reduction ([1]; 10 μg/ml, 0 Hour): 2.7%; Organism Count ([1]; 10 μg/ml, 0 Hour): 7.1 × 10^4 CFU/ml; % Reduction ([1]; 10 μg/ml, 1 Hour): 20.5%; Organism Count ([1]; 10 μg/ml, 1 Hour): 5.8 × 10^4 CFU/ml; % Reduction ([1]; 10 μg/ml, 2 Hours): 30.1%; Organism Count ([1]; 10 μg/ml, 2 Hours): 5.1 × 10^4 CFU/ml; % Reduction ([1]; 10 μg/ml, 4 Hours): 52.0%; Organism Count ([1]; 10 μg/ml, 4 Hours): 3.5 × 10^4 CFU/ml; % Reduction ([1]; 100 μg/ml, 0 Hour): 26.0%; Organism Count ([1]; 100 μg/ml, 0 Hour): 7.4 × 10^4 CFU/ml; % Reduction ([1]; 100 μg/ml, 1 Hour): 43.0%; Organism Count ([1]; 100 μg/ml, 1 Hour): 5.7 × 10^4 CFU/ml; % Reduction ([1]; 100 μg/ml, 2 Hours): 51.0%; Organism Count ([1]; 100 μg/ml, 2 Hours): 4.9 × 10^4 CFU/ml; % Reduction ([1]; 100 μg/ml, 4 Hours): 46.0%; Organism Count ([1]; 100 μg/ml, 4 Hours): 5.4 × 10^4 CFU/ml; Organism Count ([2]; 10 μg/ml, 0 Hour): 3.1 × 10^5 CFU/ml; Percent Reduction ([2]; 10 μg/ml, 0 Hour): 16.2%; Organism Count ([2]; 10 μg/ml, 1 Hour): 2.9 × 10^5 CFU/ml; Percent Reduction ([2]; 10 μg/ml, 1 Hour): 21.6%; Organism Count ([2]; 10 μg/ml, 2 Hours): 2.4 × 10^5 CFU/ml; Percent Reduction ([2]; 10 μg/ml, 2 Hours): 35.1%; Organism Count ([2]; 10 μg/ml, 4 Hours): 2.3 × 10^5 CFU/ml; Percent Reduction ([2]; 10 μg/ml, 4 Hours): 37.8%; Organism Count ([2]; 100 μg/ml, 0 Hour): 4.5 × 10^5 CFU/ml; Percent Reduction ([2]; 100 μg/ml, 0 Hour): 88.5%; Percent Reduction ([2]; 100 μg/ml, 1 Hour): 99.99%; Inhibition of lactobacilli (in words) ([2]; Tables 4 and 5, ascribed to organism instability in the media and the protocol): some inhibtion; Organism Count ([3]; 10 μg/ml, 0 Hour): 1.4 × 10^5 CFU/ml; % Reduction ([3]; 10 μg/ml, 1 Hour): 18.3%; Organism Count ([3]; 10 μg/ml, 1 Hour): 9.8 × 10^4 CFU/ml; % Reduction ([3]; 10 μg/ml, 2 Hours): 25.8%; Organism Count ([3]; 10 μg/ml, 2 Hours): 8.9 × 10^4 CFU/ml; % Reduction ([3]; 10 μg/ml, 4 Hours): 38.3%; Organism Count ([3]; 10 μg/ml, 4 Hours): 7.4 × 10^4 CFU/ml; % Reduction ([3]; 100 μg/ml, 0 Hour): 7.1%; Organism Count ([3]; 100 μg/ml, 0 Hour): 1.3 × 10^5 CFU/ml; % Reduction ([3]; 100 μg/ml, 1 Hour): 97.9%; Organism Count ([3]; 100 μg/ml, 1 Hour): 2.9 × 10^3 CFU/ml; % Reduction ([3]; 100 μg/ml, 2 Hours): 99.9%; Organism Count ([3]; 100 μg/ml, 2 Hours): 1.1 × 10^2 CFU/ml; % Reduction ([3]; 100 μg/ml, 4 Hours): 99.99%

**Q.** Which results are given for `CCCCCCCCCCCCCCCCOP([O-])(=S)OCC[N+](C)(C)C` (stereo not shown)?
**A.** MIC (Candida albicans; 72 h): 31.2 µg/mL (≈ 73.8 µM); MIC (Gardnerella vaginale; 72 h): 31.2 µg/mL (≈ 73.8 µM); MIC ([4]; 72 h): 31.2 µg/mL (≈ 73.8 µM); MIC (Staphylococcus aureus; 72 h): 31.2 µg/mL (≈ 73.8 µM)

**Q.** `CCCCCCCCCCCCCCOP(=O)([O-])OCC[N+](C)(C)C` was tested. Which MIC (Candida albicans; [5]) did it give?
**A.** 62.5 µg/mL (≈ 165 µM)

**Q.** What about the MIC (Gardnerella vaginale; [6]) of the same compound?
**A.** 250 µg/mL (≈ 659 µM)

**Q.** What about the MIC [4, 7] of the same compound?
**A.** 250 µg/mL (≈ 659 µM)

**Q.** And the MIC (Staphylococcus aureus; [5])?
**A.** 250 µg/mL (≈ 659 µM)

**Q.** With `CCCCCCCCCCCCCCCCOCC(O)COP(=O)([O-])OCC[N+](C)(C)C` (racemic) as the compound, how does the MIC (Candida albicans; [5]) read?
**A.** 125 µg/mL (≈ 260 µM)

**Q.** What about the MIC (Gardnerella vaginale; [6]) of the same compound?
**A.** 250 µg/mL (≈ 519 µM)

**Q.** What about the MIC [4, 7] of the same compound?
**A.** 250 µg/mL (≈ 519 µM)

**Q.** And the MIC (Staphylococcus aureus; [5])?
**A.** 250 µg/mL (≈ 519 µM)

**Q.** For `CCCCCCCCCCCCCCCCOP(=O)([O-])OCC[N+](C)(C)C` [BRB-1, hexadecyl phosphocholine], which MIC (Candida albicans; [5]) is on record?
**A.** 15.6 µg/mL (≈ 38.3 µM)

**Q.** And the MIC (Gardnerella vaginale; [6])?
**A.** 31.2 µg/mL (≈ 76.7 µM)

**Q.** And the MIC [4, 7]?
**A.** 125 µg/mL (≈ 307 µM)

**Q.** And the MIC (Staphylococcus aureus; [5])?
**A.** 125 µg/mL (≈ 307 µM)

**Q.** What about the “Organism Count” value ([1]; 10 μg/ml, 0 Hour) of the same compound?
**A.** 8.4 × 10^5 CFU/ml

**Q.** And the “% Reduction” value ([1]; 10 μg/ml, 1 Hour)?
**A.** 68.0%

**Q.** What about the “Organism Count” value ([1]; 10 μg/ml, 1 Hour) of the same compound?
**A.** 2.3 × 10^5 CFU/ml

**Q.** And the “% Reduction” value ([1]; 10 μg/ml, 2 Hours)?
**A.** 99.7%

**Q.** What about the “Organism Count” value ([1]; 10 μg/ml, 2 Hours) of the same compound?
**A.** 2.1 × 10^3 CFU/ml

**Q.** What about the “% Reduction” value ([1]; 10 μg/ml, 4 Hours) of the same compound?
**A.** 99.99%

**Q.** And the “Organism Count” value ([1]; 10 μg/ml, 4 Hours)?
**A.** 50 CFU/ml

**Q.** And the “% Reduction” value ([1]; 100 μg/ml, 0 Hour)?
**A.** 27.5%

**Q.** And the “Organism Count” value ([1]; 100 μg/ml, 0 Hour)?
**A.** 2.9 × 10^5 CFU/ml

**Q.** And the “% Reduction” value ([1]; 100 μg/ml, 1 Hour)?
**A.** 70.0%

**Q.** And the “Organism Count” value ([1]; 100 μg/ml, 1 Hour)?
**A.** 1.2 × 10^5 CFU/ml

**Q.** And the “% Reduction” value ([1]; 100 μg/ml, 2 Hours)?
**A.** 99.8%

**Q.** What about the “Organism Count” value ([1]; 100 μg/ml, 2 Hours) of the same compound?
**A.** 8.0 × 10^2 CFU/ml

**Q.** And the “% Reduction” value ([1]; 100 μg/ml, 4 Hours)?
**A.** 99.9%

**Q.** And the “Organism Count” value ([1]; 100 μg/ml, 4 Hours)?
**A.** 3.8 × 10^2 CFU/ml

**Q.** And the “Organism Count” value ([2]; 1 μg/ml, 0 Hour)?
**A.** 7.0 × 10^4 CFU/ml

**Q.** And the “Percent Reduction” value ([2]; 1 μg/ml, 0 Hour)?
**A.** 6.7%

**Q.** What about the “Organism Count” value ([2]; 1 μg/ml, 1 Hour) of the same compound?
**A.** 8.6 × 10^4 CFU/ml

**Q.** And the “Organism Count” value ([2]; 1 μg/ml, 2 Hours)?
**A.** 7.6 × 10^4 CFU/ml

**Q.** What about the “Organism Count” value ([2]; 1 μg/ml, 4 Hours) of the same compound?
**A.** 6.7 × 10^4 CFU/ml

**Q.** And the “Percent Reduction” value ([2]; 1 μg/ml, 4 Hours)?
**A.** 10.7%

**Q.** What about the “Organism Count” value ([2]; 10 μg/ml, 0 Hour) of the same compound?
**A.** 1.8 × 10^5 CFU/ml

**Q.** And the “Percent Reduction” value ([2]; 10 μg/ml, 0 Hour)?
**A.** 18.2%

**Q.** What about the “Organism Count” value ([2]; 10 μg/ml, 1 Hour) of the same compound?
**A.** 20 CFU/ml

**Q.** And the “Percent Reduction” value ([2]; 10 μg/ml, 1 Hour)?
**A.** 99.99%

**Q.** And the “Percent Reduction” value ([2]; 10 μg/ml, 6 Hours)?
**A.** 99.99%

**Q.** What about the “Organism Count” value ([2]; 100 μg/ml, 0 Hour) of the same compound?
**A.** 1.5 × 10^5 CFU/ml

**Q.** And the “Percent Reduction” value ([2]; 100 μg/ml, 0 Hour)?
**A.** 31.8%

**Q.** And the “Organism Count” value ([2]; 100 μg/ml, 1 Hour)?
**A.** 70 CFU/ml

**Q.** What about the “Percent Reduction” value ([2]; 100 μg/ml, 1 Hour) of the same compound?
**A.** 99.97%

**Q.** What about the “Percent Reduction” value ([2]; 100 μg/ml, 6 Hours) of the same compound?
**A.** 99.99%

**Q.** And the “% Reduction” value ([3]; 10 μg/ml, 0 Hour)?
**A.** 18.5%

**Q.** What about the “Organism Count” value ([3]; 10 μg/ml, 0 Hour) of the same compound?
**A.** 5.3 × 10^4 CFU/ml

**Q.** What about the “% Reduction” value ([3]; 10 μg/ml, 1 Hour) of the same compound?
**A.** 98.9%

**Q.** And the “Organism Count” value ([3]; 10 μg/ml, 1 Hour)?
**A.** 7.3 × 10^2 CFU/ml

**Q.** And the “% Reduction” value ([3]; 10 μg/ml, 2 Hours)?
**A.** 99.91%

**Q.** And the “Organism Count” value ([3]; 10 μg/ml, 2 Hours)?
**A.** 60 CFU/ml

**Q.** What about the “% Reduction” value ([3]; 10 μg/ml, 4 Hours) of the same compound?
**A.** 99.98%

**Q.** What about the “% Reduction” value ([3]; 100 μg/ml, 0 Hour) of the same compound?
**A.** 39.2%

**Q.** And the “Organism Count” value ([3]; 100 μg/ml, 0 Hour)?
**A.** 4.8 × 10^4 CFU/ml

**Q.** And the “% Reduction” value ([3]; 100 μg/ml, 1 Hour)?
**A.** 99.8%

**Q.** What about the “Organism Count” value ([3]; 100 μg/ml, 1 Hour) of the same compound?
**A.** 1.4 × 10^2 CFU/ml

**Q.** And the “% Reduction” value ([3]; 100 μg/ml, 2 Hours)?
**A.** 99.97%

**Q.** What about the “Organism Count” value ([3]; 100 μg/ml, 2 Hours) of the same compound?
**A.** 20 CFU/ml

**Q.** And the “% Reduction” value ([3]; 100 μg/ml, 4 Hours)?
**A.** 99.99%
